Results as given in PubChem BioAssay (NCI).
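48-hour exposure; five concentrations; linearly interpolated endpoints. TGI: total growth inhibition.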

Experiments:
Assay in all cases: NCI-60 cell line screen, 48 h
[1] = system: 786-0 renal
[2] = system: A498 renal
[3] = system: A549 NSCLC
[4] = system: ACHN renal
[5] = system: BT-549 breast
[6] = system: CAKI-1 renal
[7] = system: CCRF-CEM leukemia
[8] = system: COLO 205 colon
[9] = system: DU-145 prostate
[10] = system: EKVX NSCLC
[11] = system: HCC-2998 colon
[12] = system: HCT-116 colon
[13] = system: HCT-15 colon
[14] = system: HL-60(TB) leukemia
[15] = system: HOP-62 NSCLC
[16] = system: HOP-92 NSCLC
[17] = system: HS 578T breast
[18] = system: HT29 colon
[19] = system: IGROV1 ovarian
[20] = system: K-562 leukemia
[21] = system: KM12 colon
[22] = system: LOX IMVI melanoma
[23] = system: M14 melanoma
[24] = system: MALME-3M melanoma
[25] = system: MCF7 breast
[26] = system: MDA-MB-231 breast
[27] = system: MDA-MB-435
[28] = system: MDA-N
[29] = system: MOLT-4 leukemia
[30] = system: NCI-H226 lung
[31] = system: NCI-H23 lung
[32] = system: NCI-H460 lung
[33] = system: NCI-H522 lung
[34] = system: NCI/ADR-RES ovarian
[35] = system: OVCAR-3 ovarian
[36] = system: OVCAR-4 ovarian
[37] = system: OVCAR-5 ovarian
[38] = system: OVCAR-8 ovarian
[39] = system: PC-3 prostate
[40] = system: RXF 393 renal
[41] = system: SF-268 CNS
[42] = system: SF-295 CNS
[43] = system: SF-539 CNS
[44] = system: SK-MEL-2 melanoma
[45] = system: SK-MEL-28 melanoma
[46] = system: SK-MEL-5 melanoma
[47] = system: SK-OV-3 ovarian
[48] = system: SN12C renal
[49] = system: SNB-19 CNS
[50] = system: SNB-75 CNS
[51] = system: SR leukemia
[52] = system: SW-620 colon
[53] = system: T-47D breast
[54] = system: TK-10 renal
[55] = system: U251 CNS
[56] = system: UACC-257 melanoma
[57] = system: UACC-62 melanoma
[58] = system: UO-31 renal
[59] = system: RPMI-8226 leukemia

For C=CCC1(O)C(=O)OC2C(O)COC21O (centres undefined), the TGI [1] was > 100 µM, the TGI [2] was > 100 µM and the TGI [3] was > 100 µM. The TGI [4] was > 100 µM, the TGI [5] was > 100 µM and the TGI [6] was > 100 µM. The TGI [7] was > 100 µM, the TGI [8] was > 100 µM and the TGI [9] was > 100 µM. The TGI [10] was > 100 µM, the TGI [11] was > 100 µM and the TGI [12] was > 100 µM. The TGI [13] was > 100 µM, the TGI [14] was > 100 µM and the TGI [15] was > 100 µM. The TGI [16] was > 100 µM, the TGI [17] was > 100 µM and the TGI [18] was > 100 µM. For the same compound, the TGI [19] was > 100 µM, the TGI [20] was > 100 µM and the TGI [21] was > 100 µM. The TGI [22] was > 100 µM, the TGI [23] was > 100 µM and the TGI [24] was > 100 µM. The TGI [25] was > 100 µM, the TGI [26] was > 100 µM and the TGI [27] was > 100 µM. For the same compound, the TGI [28] was > 100 µM, the TGI [29] was > 100 µM and the TGI [30] was > 100 µM. For the same compound, the TGI [31] was > 100 µM, the TGI [32] was > 100 µM and the TGI [33] was > 100 µM. For the same compound, the TGI [34] was > 100 µM, the TGI [35] was > 100 µM and the TGI [36] was > 100 µM. For the same compound, the TGI [37] was > 100 µM, the TGI [38] was > 100 µM and the TGI [39] was > 100 µM. For the same compound, the TGI [40] was > 100 µM, the TGI [41] was > 100 µM and the TGI [42] was > 100 µM. For the same compound, the TGI [43] was > 100 µM, the TGI [44] was > 100 µM and the TGI [45] was > 100 µM. For the same compound, the TGI [46] was > 100 µM, the TGI [47] was > 100 µM and the TGI [48] was > 100 µM. The TGI [49] was > 100 µM, the TGI [50] was > 100 µM and the TGI [51] was > 100 µM. The TGI [52] was > 100 µM, the TGI [53] was > 100 µM and the TGI [54] was > 100 µM. The TGI [55] was > 100 µM, the TGI [56] was > 100 µM and the TGI [57] was > 100 µM. For the same compound, the TGI [58] was > 100 µM.
O=CN1CCN(C(=O)c2ccc(Cl)cc2)C1=S was tested, and the TGI [1] was 19.7 µM, the TGI [2] was 29.3 µM and the TGI [3] was 28 µM. It also gave a TGI [4] of 31 µM, a TGI [5] of 69.2 µM and a TGI [6] of 27 µM. For the same compound, the TGI [7] was 37.4 µM, the TGI [8] was 41.9 µM and the TGI [9] was 29.1 µM. The TGI [10] was 29 µM, the TGI [11] was 33.9 µM and the TGI [12] was 34.8 µM. It also gave a TGI [13] of 55.8 µM, a TGI [14] of 44.1 µM and a TGI [15] of 44 µM. The TGI [16] was 14.9 µM, the TGI [17] was > 100 µM and the TGI [18] was 33 µM. The TGI [19] was 28.5 µM, the TGI [20] was 39.6 µM and the TGI [21] was 25.2 µM. For the same compound, the TGI [22] was 24.5 µM, the TGI [23] was 27.7 µM and the TGI [24] was 41.8 µM. It also gave a TGI [25] of 11 µM, a TGI [26] of 34.5 µM and a TGI [27] of 28 µM. For the same compound, the TGI [28] was 31.5 µM, the TGI [29] was 48.2 µM and the TGI [30] was 80 µM. It also gave a TGI [31] of 53.6 µM, a TGI [32] of 52 µM and a TGI [33] of 31.2 µM. The TGI [34] was > 100 µM, the TGI [35] was 28.7 µM and the TGI [36] was 35.5 µM. The TGI [37] was 35.6 µM, the TGI [38] was 31.3 µM and the TGI [39] was 32.1 µM. For the same compound, the TGI [59] was 17.1 µM, the TGI [40] was 31 µM and the TGI [41] was 35.9 µM. For the same compound, the TGI [42] was 76 µM, the TGI [43] was 61.7 µM and the TGI [44] was 36 µM. The TGI [45] was 39.6 µM, the TGI [47] was 74.6 µM and the TGI [48] was 28 µM. It also gave a TGI [49] of 29.5 µM, a TGI [50] of 36.8 µM and a TGI [52] of 36.5 µM. For the same compound, the TGI [53] was 36.4 µM, the TGI [54] was 28.2 µM and the TGI [55] was 28.2 µM. The TGI [56] was 33.7 µM and the TGI [57] was 29.3 µM.
